Experimental data as given in US9738634B2, “Heterocyclic amide compound and herbicide” (SYNGENTA PARTICIPATIONS AG, priority 2013, dated 2017).

Key:
Format in all cases: in vivo
barnyard grass [1] = assay: Test Example 1: weedkilling efficacy, preemergent weed treatment in the submerged state; A: barnyard grass; conditions: treatment dosage 252 g/ha
Method in brief: (§1)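 Visual scores against set criteria were taken 3 weeks after treatment. Compounds, as diluted emulsions at specified g/ha, went onto the water surface of 4 cm-flooded alluvial soil pots on the day weeds were sown and 2.5-leaf rice was transplanted; greenhouse held 25–30 °C.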

bulrush [2] = assay: Test Example 1: weedkilling efficacy, preemergent weed treatment in the submerged state; B: bulrush; conditions: treatment dosage 252 g/ha
Method in brief: as §1

oval-leafed pondweed [3] = assay: Test Example 1: weedkilling efficacy, preemergent weed treatment in the submerged state; C: oval-leafed pondweed; conditions: treatment dosage 252 g/ha
Method in brief: as §1

transplanted rice = assay: Test Example 1: preemergent weed treatment in the submerged state, effect on crop; a: transplanted rice; conditions: treatment dosage 252 g/ha
Method in brief: as §1

barnyard grass [4] = assay: Test Example 2: weedkilling efficacy, growth period weed treatment in the submerged state; A: barnyard grass; conditions: treatment dosage 252 g/ha
Method in brief: (§2)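 Barnyard grass, bulrush and oval-leafed pondweed sown in alluvial soil under 4 cm flooding, greenhouse 25 to 30° C. At 1-2 leaf stage, water-diluted emulsion applied to the water surface at stated g/ha dosages; effects scored 3 weeks later.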

bulrush [5] = assay: Test Example 2: weedkilling efficacy, growth period weed treatment in the submerged state; B: bulrush; conditions: treatment dosage 252 g/ha
Method in brief: as §2

oval-leafed pondweed [6] = assay: Test Example 2: weedkilling efficacy, growth period weed treatment in the submerged state; C: oval-leafed pondweed; conditions: treatment dosage 252 g/ha
Method in brief: as §2

crabgrass [7] = assay: Test Example 3: weedkilling efficacy through soil treatment; D: crabgrass; conditions: treatment dosage 315 g/ha
Method in brief: (§3)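 Crop and weed responses were judged three weeks after a uniform surface spray of the water-diluted emulsion at the given g/ha rate. Seeds sat beneath about 1.5 cm of sterilized diluvial soil, and boxes stood in a greenhouse at 25 to 30° C.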

green foxtail [8] = assay: Test Example 3: weedkilling efficacy through soil treatment; E: green foxtail; conditions: treatment dosage 315 g/ha
Method in brief: as §3

black-grass [9] = assay: Test Example 3: weedkilling efficacy through soil treatment; H: black-grass; conditions: treatment dosage 315 g/ha
Method in brief: as §3

Italian ryegrass [10] = assay: Test Example 3: weedkilling efficacy through soil treatment; I: Italian ryegrass; conditions: treatment dosage 315 g/ha
Method in brief: as §3

Indian mallow [11] = assay: Test Example 3: weedkilling efficacy through soil treatment; K: Indian mallow; conditions: treatment dosage 315 g/ha
Method in brief: as §3

redroot pigweed [12] = assay: Test Example 3: weedkilling efficacy through soil treatment; L: redroot pigweed; conditions: treatment dosage 315 g/ha
Method in brief: as §3

fig-leafed goosefoot [13] = assay: Test Example 3: weedkilling efficacy through soil treatment; M: fig-leafed goosefoot; conditions: treatment dosage 315 g/ha
Method in brief: as §3

chickweed [14] = assay: Test Example 3: weedkilling efficacy through soil treatment; N: chickweed; conditions: treatment dosage 315 g/ha
Method in brief: as §3

catchweed [15] = assay: Test Example 3: weedkilling efficacy through soil treatment; O: catchweed; conditions: treatment dosage 315 g/ha
Method in brief: as §3

birds-eye speedwell [16] = assay: Test Example 3: weedkilling efficacy through soil treatment; p: birds-eye speedwell; conditions: treatment dosage 315 g/ha
Method in brief: as §3

directly sown rice [17] = assay: Test Example 3: soil treatment, effect on crop; b: directly sown rice; conditions: treatment dosage 315 g/ha
Method in brief: as §3

corn [18] = assay: Test Example 3: soil treatment, effect on crop; c: corn; conditions: treatment dosage 315 g/ha
Method in brief: as §3

soybean [19] = assay: Test Example 3: soil treatment, effect on crop; d: soybean; conditions: treatment dosage 315 g/ha
Method in brief: as §3

wheat [20] = assay: Test Example 3: soil treatment, effect on crop; e: wheat; conditions: treatment dosage 315 g/ha
Method in brief: as §3

beet [21] = assay: Test Example 3: soil treatment, effect on crop; f: beet; conditions: treatment dosage 315 g/ha
Method in brief: as §3

crabgrass [22] = assay: Test Example 4: weedkilling efficacy by foliar treatment; D: crabgrass; conditions: treatment dosage 315 g/ha
Method in brief: (§4)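 Seeds are spot-sown into sterilized diluvial soil and covered with about 1.5 cm of soil. After 14 days' greenhouse growth at 25 to 30° C, plants are sprayed on stems and leaves with diluted emulsion at the stated g/ha rate, then scored at 3 weeks.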

green foxtail [23] = assay: Test Example 4: weedkilling efficacy by foliar treatment; E: green foxtail; conditions: treatment dosage 315 g/ha
Method in brief: as §4

black-grass [24] = assay: Test Example 4: weedkilling efficacy by foliar treatment; H: black-grass; conditions: treatment dosage 315 g/ha
Method in brief: as §4

Italian ryegrass [25] = assay: Test Example 4: weedkilling efficacy by foliar treatment; I: Italian ryegrass; conditions: treatment dosage 315 g/ha
Method in brief: as §4

Indian mallow [26] = assay: Test Example 4: weedkilling efficacy by foliar treatment; K: Indian mallow; conditions: treatment dosage 315 g/ha
Method in brief: as §4

redroot pigweed [27] = assay: Test Example 4: weedkilling efficacy by foliar treatment; L: redroot pigweed; conditions: treatment dosage 315 g/ha
Method in brief: as §4

fig-leafed goosefoot [28] = assay: Test Example 4: weedkilling efficacy by foliar treatment; M: fig-leafed goosefoot; conditions: treatment dosage 315 g/ha
Method in brief: as §4

chickweed [29] = assay: Test Example 4: weedkilling efficacy by foliar treatment; N: chickweed; conditions: treatment dosage 315 g/ha
Method in brief: as §4

catchweed [30] = assay: Test Example 4: weedkilling efficacy by foliar treatment; O: catchweed; conditions: treatment dosage 315 g/ha
Method in brief: as §4

birds-eye speedwell [31] = assay: Test Example 4: weedkilling efficacy by foliar treatment; p: birds-eye speedwell; conditions: treatment dosage 315 g/ha
Method in brief: as §4

directly sown rice [32] = assay: Test Example 4: foliar treatment, effect on crop; b: directly sown rice; conditions: treatment dosage 315 g/ha
Method in brief: as §4

corn [33] = assay: Test Example 4: foliar treatment, effect on crop; c: corn; conditions: treatment dosage 315 g/ha
Method in brief: as §4

soybean [34] = assay: Test Example 4: foliar treatment, effect on crop; d: soybean; conditions: treatment dosage 315 g/ha
Method in brief: as §4

wheat [35] = assay: Test Example 4: foliar treatment, effect on crop; e: wheat; conditions: treatment dosage 315 g/ha
Method in brief: as §4

beet [36] = assay: Test Example 4: foliar treatment, effect on crop; f: beet; conditions: treatment dosage 315 g/ha
Method in brief: as §4

SMILES	A (barnyard grass) weedkilling efficacy grade (barnyard grass [1])	B (bulrush) weedkilling efficacy grade (bulrush [2])	C (oval-leafed pondweed) weedkilling efficacy grade (oval-leafed pondweed [3])	a (transplanted rice) effect on crop grade (transplanted rice)	A (barnyard grass) weedkilling efficacy grade (barnyard grass [4])	B (bulrush) weedkilling efficacy grade (bulrush [5])	C (oval-leafed pondweed) weedkilling efficacy grade (oval-leafed pondweed [6])	D (crabgrass) weedkilling efficacy grade (crabgrass [7])	E (green foxtail) weedkilling efficacy grade (green foxtail [8])	H (black-grass) weedkilling efficacy grade (black-grass [9])	I (Italian ryegrass) weedkilling efficacy grade (Italian ryegrass [10])	K (Indian mallow) weedkilling efficacy grade (Indian mallow [11])	L (redroot pigweed) weedkilling efficacy grade (redroot pigweed [12])	M (fig-leafed goosefoot) weedkilling efficacy grade (fig-leafed goosefoot [13])	N (chickweed) weedkilling efficacy grade (chickweed [14])	O (catchweed) weedkilling efficacy grade (catchweed [15])	P (birds-eye speedwell) weedkilling efficacy grade (birds-eye speedwell [16])	b (directly sown rice) effect on crop grade (directly sown rice [17])	c (corn) effect on crop grade (corn [18])	d (soybean) effect on crop grade (soybean [19])	further results
CCc1nsc(NC(=O)C(C)(C)N2COC(C)=C(c3ccccc3)C2=O)n1 [B-1-14]	5 (weed kill ratio 90% or more, (practically complete withering))	5 (weed kill ratio 90% or more, (practically complete withering))	5 (weed kill ratio 90% or more, (practically complete withering))	1 (weed kill ratio 5% or more, less than 20%)	5 (weed kill ratio 90% or more, (practically complete withering))	5 (weed kill ratio 90% or more, (practically complete withering))	5 (weed kill ratio 90% or more, (practically complete withering))	5 (weed kill ratio 90% or more, (practically complete withering))	5 (weed kill ratio 90% or more, (practically complete withering))	5 (weed kill ratio 90% or more, (practically complete withering))	5 (weed kill ratio 90% or more, (practically complete withering))	3 (weed kill ratio 40% or more, less than 70%)	5 (weed kill ratio 90% or more, (practically complete withering))	5 (weed kill ratio 90% or more, (practically complete withering))	4 (weed kill ratio 70% or more, less than 90%)	5 (weed kill ratio 90% or more, (practically complete withering))	5 (weed kill ratio 90% or more, (practically complete withering))	5 (weed kill ratio 90% or more, (practically complete withering))	0 (weed kill ratio 5% or less (practically no effect))	3 (weed kill ratio 40% or more, less than 70%)	e (wheat) effect on crop grade (wheat [20]): 5 (weed kill ratio 90% or more, (practically complete withering)); f (beet) effect on crop grade (beet [21]): 5 (weed kill ratio 90% or more, (practically complete withering)); D (crabgrass) weedkilling efficacy grade (crabgrass [22]): 5 (weed kill ratio 90% or more, (practically complete withering)); E (green foxtail) weedkilling efficacy grade (green foxtail [23]): 5 (weed kill ratio 90% or more, (practically complete withering)); H (black-grass) weedkilling efficacy grade (black-grass [24]): 5 (weed kill ratio 90% or more, (practically complete withering)); I (Italian ryegrass) weedkilling efficacy grade (Italian ryegrass [25]): 5 (weed kill ratio 90% or more, (practically complete withering)); K (Indian mallow) weedkilling efficacy grade (Indian mallow [26]): 5 (weed kill ratio 90% or more, (practically complete withering)); L (redroot pigweed) weedkilling efficacy grade (redroot pigweed [27]): 5 (weed kill ratio 90% or more, (practically complete withering)); M (fig-leafed goosefoot) weedkilling efficacy grade (fig-leafed goosefoot [28]): 4 (weed kill ratio 70% or more, less than 90%); N (chickweed) weedkilling efficacy grade (chickweed [29]): 4 (weed kill ratio 70% or more, less than 90%); O (catchweed) weedkilling efficacy grade (catchweed [30]): 4 (weed kill ratio 70% or more, less than 90%); P (birds-eye speedwell) weedkilling efficacy grade (birds-eye speedwell [31]): 4 (weed kill ratio 70% or more, less than 90%); b (directly sown rice) effect on crop grade (directly sown rice [32]): 4 (weed kill ratio 70% or more, less than 90%); c (corn) effect on crop grade (corn [33]): 3 (weed kill ratio 40% or more, less than 70%); d (soybean) effect on crop grade (soybean [34]): 4 (weed kill ratio 70% or more, less than 90%); e (wheat) effect on crop grade (wheat [35]): 4 (weed kill ratio 70% or more, less than 90%); f (beet) effect on crop grade (beet [36]): 5 (weed kill ratio 90% or more, (practically complete withering))
CSc1nsc(NC(=O)C(C)(C)N2COC(C)=C(c3ccccc3)C2=O)n1 [B-1-16]	5 (weed kill ratio 90% or more, (practically complete withering))	5 (weed kill ratio 90% or more, (practically complete withering))	5 (weed kill ratio 90% or more, (practically complete withering))	2 (weed kill ratio 20% or more, less than 40%)	5 (weed kill ratio 90% or more, (practically complete withering))	5 (weed kill ratio 90% or more, (practically complete withering))	5 (weed kill ratio 90% or more, (practically complete withering))	5 (weed kill ratio 90% or more, (practically complete withering))	5 (weed kill ratio 90% or more, (practically complete withering))	5 (weed kill ratio 90% or more, (practically complete withering))	4 (weed kill ratio 70% or more, less than 90%)	0 (weed kill ratio 5% or less (practically no effect))	4 (weed kill ratio 70% or more, less than 90%)	4 (weed kill ratio 70% or more, less than 90%)	3 (weed kill ratio 40% or more, less than 70%)	5 (weed kill ratio 90% or more, (practically complete withering))	4 (weed kill ratio 70% or more, less than 90%)	3 (weed kill ratio 40% or more, less than 70%)	0 (weed kill ratio 5% or less (practically no effect))	0 (weed kill ratio 5% or less (practically no effect))	e (wheat) effect on crop grade (wheat [20]): 5 (weed kill ratio 90% or more, (practically complete withering)); f (beet) effect on crop grade (beet [21]): 0 (weed kill ratio 5% or less (practically no effect)); D (crabgrass) weedkilling efficacy grade (crabgrass [22]): 5 (weed kill ratio 90% or more, (practically complete withering)); E (green foxtail) weedkilling efficacy grade (green foxtail [23]): 5 (weed kill ratio 90% or more, (practically complete withering)); H (black-grass) weedkilling efficacy grade (black-grass [24]): 5 (weed kill ratio 90% or more, (practically complete withering)); I (Italian ryegrass) weedkilling efficacy grade (Italian ryegrass [25]): 3 (weed kill ratio 40% or more, less than 70%); K (Indian mallow) weedkilling efficacy grade (Indian mallow [26]): 5 (weed kill ratio 90% or more, (practically complete withering)); L (redroot pigweed) weedkilling efficacy grade (redroot pigweed [27]): 4 (weed kill ratio 70% or more, less than 90%); M (fig-leafed goosefoot) weedkilling efficacy grade (fig-leafed goosefoot [28]): 3 (weed kill ratio 40% or more, less than 70%); N (chickweed) weedkilling efficacy grade (chickweed [29]): 0 (weed kill ratio 5% or less (practically no effect)); O (catchweed) weedkilling efficacy grade (catchweed [30]): 4 (weed kill ratio 70% or more, less than 90%); P (birds-eye speedwell) weedkilling efficacy grade (birds-eye speedwell [31]): 0 (weed kill ratio 5% or less (practically no effect)); b (directly sown rice) effect on crop grade (directly sown rice [32]): 4 (weed kill ratio 70% or more, less than 90%); c (corn) effect on crop grade (corn [33]): 2 (weed kill ratio 20% or more, less than 40%); d (soybean) effect on crop grade (soybean [34]): 3 (weed kill ratio 40% or more, less than 70%); e (wheat) effect on crop grade (wheat [35]): 1 (weed kill ratio 5% or more, less than 20%); f (beet) effect on crop grade (beet [36]): 1 (weed kill ratio 5% or more, less than 20%)
